ChEMBL document CHEMBL1134430, “Synthesis and biological activity of novel macrocyclic antifungals: acylated conjugates of the ornithine moiety of the lipopeptidolactone FR901469” (2001)
≈ marks a conversion by molar mass, not a printed value.

Key:
Type in all cases: functional
Mus musculus [1] = species on record: Mus musculus; experiment: Hemolytic ability to hemolyze ICR mouse RBCs in microtiter red blood cell hemolysis assay; set-up: concentration or dose not given beside the values
Candida parapsilosis = experiment: Minimum inhibitory concentration against Candida parapsilosis 15001 strain; conditions: Lodderomyces parapsilosis
Candida tropicalis [2] = experiment: Minimum inhibitory concentration against Candida tropicalis 8001 strain
Candida tropicalis [3] = experiment: Minimum inhibitory concentration against Candida tropicalis 8002 strain
[4] = system: Meyerozyma guilliermondii; experiment: Minimum inhibitory concentration against Candida guilliermondii FP587 strain
Candida albicans [5] = experiment: Minimum inhibitory concentration against Candida albicans FP579 strain
Candida albicans [6] = experiment: Minimum inhibitory concentration against Candida albicans FP633 strain
Mus musculus [7] = experiment: In vivo activity in Disseminated Murine Candidiasis Model
Mus musculus [8] = experiment: (§1) Ratio of In vivo activity of drug in Disseminated Murine Candidiasis Model to that of In vivo activity of FR-901469 in Disseminated Murine Candidiasis Model
Aspergillus fumigatus = experiment: In vitro minimum inhibitory concentration against Aspergillus fumigatus TIMM0063 FPI305 was determined by the broth microdilution method.
[9] = as §1

Compound	Hemolysis (Mus musculus [1])	MIC (Candida parapsilosis)	MIC (Candida tropicalis [2])	MIC (Candida tropicalis [3])	MIC [4]	MIC (Candida albicans [5])	MIC (Candida albicans [6])	ED50 (Mus musculus [7])	Ratio (Mus musculus [8])	MIC (Aspergillus fumigatus)	Ratio [9]
CCCCCCCCCCCCC[C@@H]1CC(=O)N[C@H]([C@@H](C)O)C(=O)N[C@H](C)C(=O)N[C@@H](Cc2ccc(O)cc2)C(=O)N[C@@H](C(C)C)C(=O)N2C[C@H](O)C[C@H]2C(=O)N[C@H]([C@@H](C)O)C(=O)N[C@@H]([C@@H](C)O)C(=O)N2CC[C@H](O)[C@H]2C(=O)N[C@@H]([C@H](O)CC(N)=O)C(=O)NCC(=O)N[C@H]([C@@H](C)O)C(=O)N[C@@H](CCCNC(=O)CO)C(=O)O1	9%	0.78 µg/mL (≈ 0.49 µM)	1.56 µg/mL (≈ 0.98 µM)	0.78 µg/mL (≈ 0.49 µM)	0.39 µg/mL (≈ 0.245 µM)	0.78 µg/mL (≈ 0.49 µM)	0.39 µg/mL (≈ 0.245 µM)	–	–	–	–
CCCCCCCCCCCCC[C@@H]1CC(=O)N[C@H]([C@@H](C)O)C(=O)N[C@H](C)C(=O)N[C@@H](Cc2ccc(O)cc2)C(=O)N[C@@H](C(C)C)C(=O)N2C[C@H](O)C[C@H]2C(=O)N[C@H]([C@@H](C)O)C(=O)N[C@@H]([C@@H](C)O)C(=O)N2CC[C@H](O)[C@H]2C(=O)N[C@@H]([C@H](O)CC(N)=O)C(=O)NCC(=O)N[C@H]([C@@H](C)O)C(=O)N[C@@H](CCCNC(C)=O)C(=O)O1	5%	1.56 µg/mL (≈ 0.99 µM)	1.56 µg/mL (≈ 0.99 µM)	1.56 µg/mL (≈ 0.99 µM)	0.78 µg/mL (≈ 0.495 µM)	0.78 µg/mL (≈ 0.495 µM)	0.39 µg/mL (≈ 0.247 µM)	4 mg/kg	6.2	1 µg/mL (≈ 0.635 µM)	–
CCCCCCCCCCCCC[C@@H]1CC(=O)N[C@H]([C@@H](C)O)C(=O)N[C@H](C)C(=O)N[C@@H](Cc2ccc(O)cc2)C(=O)N[C@@H](C(C)C)C(=O)N2C[C@H](O)C[C@H]2C(=O)N[C@H]([C@@H](C)O)C(=O)N[C@@H]([C@@H](C)O)C(=O)N2CC[C@H](O)[C@H]2C(=O)N[C@@H]([C@H](O)CC(N)=O)C(=O)NCC(=O)N[C@H]([C@@H](C)O)C(=O)N[C@@H](CCCNC(=O)[C@@H](N)CCCN)C(=O)O1.Cl	20%	0.39 µg/mL	1.56 µg/mL	1.56 µg/mL	0.39 µg/mL	0.78 µg/mL	0.39 µg/mL	0.54 mg/kg	–	0.5 µg/mL	0.8
CCCCCCCCCCCCC[C@@H]1CC(=O)N[C@H]([C@@H](C)O)C(=O)N[C@H](C)C(=O)N[C@@H](Cc2ccc(O)cc2)C(=O)N[C@@H](C(C)C)C(=O)N2C[C@H](O)C[C@H]2C(=O)N[C@H]([C@@H](C)O)C(=O)N[C@@H]([C@@H](C)O)C(=O)N2CC[C@H](O)[C@H]2C(=O)N[C@@H]([C@H](O)CC(N)=O)C(=O)NCC(=O)N[C@H]([C@@H](C)O)C(=O)N[C@@H](CCCNC(=O)CN)C(=O)O1.Cl	67%	0.78 µg/mL	0.78 µg/mL	0.78 µg/mL	0.78 µg/mL	0.78 µg/mL	0.39 µg/mL	–	–	0.5 µg/mL	–
CCCCCCCCCCCCC[C@@H]1CC(=O)N[C@H]([C@@H](C)O)C(=O)N[C@H](C)C(=O)N[C@@H](Cc2ccc(O)cc2)C(=O)N[C@@H](C(C)C)C(=O)N2C[C@H](O)C[C@H]2C(=O)N[C@H]([C@@H](C)O)C(=O)N[C@@H]([C@@H](C)O)C(=O)N2CC[C@H](O)[C@H]2C(=O)N[C@@H]([C@H](O)CC(N)=O)C(=O)NCC(=O)N[C@H]([C@@H](C)O)C(=O)N[C@@H](CCCNC(=O)[C@@H]2CCN2)C(=O)O1.Cl	27%	0.78 µg/mL	0.39 µg/mL	0.39 µg/mL	0.78 µg/mL	0.78 µg/mL	0.39 µg/mL	–	–	–	–
CCCCCCCCCCCCC[C@@H]1CC(=O)N[C@H]([C@@H](C)O)C(=O)N[C@H](C)C(=O)N[C@@H](Cc2ccc(O)cc2)C(=O)N[C@@H](C(C)C)C(=O)N2C[C@H](O)C[C@H]2C(=O)N[C@H]([C@@H](C)O)C(=O)N[C@@H]([C@@H](C)O)C(=O)N2CC[C@H](O)[C@H]2C(=O)N[C@@H]([C@H](O)CC(N)=O)C(=O)NCC(=O)N[C@H]([C@@H](C)O)C(=O)N[C@@H](CCCNC(=O)CCCCN)C(=O)O1.Cl	20%	0.39 µg/mL	0.78 µg/mL	0.78 µg/mL	0.39 µg/mL	0.78 µg/mL	0.39 µg/mL	–	–	–	–
CCCCCCCCCCCCC[C@@H]1CC(=O)N[C@H]([C@@H](C)O)C(=O)N[C@H](C)C(=O)N[C@@H](Cc2ccc(O)cc2)C(=O)N[C@@H](C(C)C)C(=O)N2C[C@H](O)C[C@H]2C(=O)N[C@H]([C@@H](C)O)C(=O)N[C@@H]([C@@H](C)O)C(=O)N2CC[C@H](O)[C@H]2C(=O)N[C@@H]([C@H](O)CC(N)=O)C(=O)NCC(=O)N[C@H]([C@@H](C)O)C(=O)N[C@@H](CCCNC(=O)CCN)C(=O)O1.Cl	44%	0.39 µg/mL	0.78 µg/mL	0.78 µg/mL	0.39 µg/mL	0.39 µg/mL	0.39 µg/mL	–	–	–	–
CCCCCCCCCCCCC[C@@H]1CC(=O)N[C@H]([C@@H](C)O)C(=O)N[C@H](C)C(=O)N[C@@H](Cc2ccc(O)cc2)C(=O)N[C@@H](C(C)C)C(=O)N2C[C@H](O)C[C@H]2C(=O)N[C@H]([C@@H](C)O)C(=O)N[C@@H]([C@@H](C)O)C(=O)N2CC[C@H](O)[C@H]2C(=O)N[C@@H]([C@H](O)CC(N)=O)C(=O)NCC(=O)N[C@H]([C@@H](C)O)C(=O)N[C@@H](CCCNC(=O)CCCN)C(=O)O1.Cl	30%	0.78 µg/mL	1.56 µg/mL	0.78 µg/mL	0.78 µg/mL	1.56 µg/mL	0.78 µg/mL	–	–	–	–
CCCCCCCCCCCCC[C@@H]1CC(=O)N[C@H]([C@@H](C)O)C(=O)N[C@H](C)C(=O)N[C@@H](Cc2ccc(O)cc2)C(=O)N[C@@H](C(C)C)C(=O)N2C[C@H](O)C[C@H]2C(=O)N[C@H]([C@@H](C)O)C(=O)N[C@@H]([C@@H](C)O)C(=O)N2CC[C@H](O)[C@H]2C(=O)N[C@@H]([C@H](O)CC(N)=O)C(=O)NCC(=O)N[C@H]([C@@H](C)O)C(=O)N[C@@H](CCCNC(=O)CCCCCN)C(=O)O1.Cl	14%	0.39 µg/mL	0.78 µg/mL	0.78 µg/mL	0.78 µg/mL	0.78 µg/mL	0.39 µg/mL	–	–	–	–
CCCCCCCCCCCCC[C@@H]1CC(=O)N[C@H]([C@@H](C)O)C(=O)N[C@H](C)C(=O)N[C@@H](Cc2ccc(O)cc2)C(=O)N[C@@H](C(C)C)C(=O)N2C[C@H](O)C[C@H]2C(=O)N[C@H]([C@@H](C)O)C(=O)N[C@@H]([C@@H](C)O)C(=O)N2CC[C@H](O)[C@H]2C(=O)N[C@@H]([C@H](O)CC(N)=O)C(=O)NCC(=O)N[C@H]([C@@H](C)O)C(=O)N[C@@H](CCCNC(=O)CN(C)C)C(=O)O1.Cl	10%	0.39 µg/mL	0.78 µg/mL	0.78 µg/mL	0.2 µg/mL	0.78 µg/mL	0.39 µg/mL	9.1 mg/kg	10.4	0.5 µg/mL	–
CCCCCCCCCCCCC[C@@H]1CC(=O)N[C@H]([C@@H](C)O)C(=O)N[C@H](C)C(=O)N[C@@H](Cc2ccc(O)cc2)C(=O)N[C@@H](C(C)C)C(=O)N2C[C@H](O)C[C@H]2C(=O)N[C@H]([C@@H](C)O)C(=O)N[C@@H]([C@@H](C)O)C(=O)N2CC[C@H](O)[C@H]2C(=O)N[C@@H]([C@H](O)CC(N)=O)C(=O)NCC(=O)N[C@H]([C@@H](C)O)C(=O)N[C@@H](CCCNC(=O)CNC)C(=O)O1.Cl	54%	0.39 µg/mL	0.78 µg/mL	0.78 µg/mL	0.39 µg/mL	0.39 µg/mL	0.2 µg/mL	–	–	–	–
CCCCCCCCCCCCC[C@@H]1CC(=O)N[C@H]([C@@H](C)O)C(=O)N[C@H](C)C(=O)N[C@@H](Cc2ccc(O)cc2)C(=O)N[C@@H](C(C)C)C(=O)N2C[C@H](O)C[C@H]2C(=O)N[C@H]([C@@H](C)O)C(=O)N[C@@H]([C@@H](C)O)C(=O)N2CC[C@H](O)[C@H]2C(=O)N[C@@H]([C@H](O)CC(N)=O)C(=O)NCC(=O)N[C@H]([C@@H](C)O)C(=O)N[C@@H](CCCN)C(=O)O1.Cl	100%	0.39 µg/mL	0.39 µg/mL	0.39 µg/mL	0.39 µg/mL	0.39 µg/mL	0.39 µg/mL	0.44 mg/kg	–	0.5 µg/mL	–
C[C@@H]1[C@H](O)[C@@H](C)/C=C/C=C/C=C/C=C/C=C/C=C/C=C/[C@H](O[C@@H]2O[C@H](C)[C@@H](O)[C@H](N)[C@@H]2O)C[C@@H]2O[C@](O)(C[C@@H](O)C[C@@H](O)[C@H](O)CC[C@@H](O)C[C@@H](O)CC(=O)O[C@H]1C)C[C@H](O)[C@H]2C(=O)O [AMPHOTERICIN B]	–	–	–	–	–	–	–	0.132 mg/kg	–	–	–
OC(Cn1cncn1)(Cn1cncn1)c1ccc(F)cc1F [FLUCONAZOLE]	–	–	–	–	–	–	–	> 20 mg/kg	–	–	–
